Experimental data reported in paper PMC8999638, “Identification of Entry Inhibitors against Delta and Omicron Variants of SARS-CoV-2” (International Journal of Molecular Sciences, 2022).

How the values were obtained:
Assay in all cases: microbe, parasite or virus in culture
Assay type in all cases: cell-based, SARS-CoV-2
[1] = test system: pseudoviruses carrying spike proteins of different variants; details: Severe acute respiratory syndrome coronavirus 2, read-out: EC50 values against different variants (span)
[2] = test system: pseudovirus carrying spike protein of the beta variant; details: read-out: EC50 (nM) (Beta)
[3] = test system: pseudovirus carrying spike protein of the alpha variant; details: read-out: EC50 (nM) (Alpha)
[4] = test system: pseudovirus carrying spike protein of the delta variant; details: read-out: EC50 (nM) (Delta)
[5] = test system: pseudovirus carrying spike protein of the omicron variant; details: read-out: EC50 (nM) (Omicron)

C[C@@H]1CCO[C@H]2Cn3cc(C(=O)NCc4ccc(F)cc4F)c(=O)c(O)c3C(=O)N12 [Dolutegravir sodium]
EC50 [1]: 10.2 to 22.9 nM
EC50 [2]: 10.2 nM
EC50 [3]: 15.8 nM
EC50 [4]: 3 nM
EC50 [5]: 2.6 nM

Cc1cc(C#N)cc(C)c1Oc1nc(Nc2ccc(C#N)cc2)nc(N)c1Br [Etravirine]
EC50 [1]: 4.5 to 5.8 nM
EC50 [2]: 4.5 nM
EC50 [3]: 4.9 nM
EC50 [4]: 2.9 nM
EC50 [5]: 3 nM
